Entries after “also recorded” stand apart in the source; their conditions may differ.
Columns and labels:
[1] = tested on: precontracted aortic vessel; assay: Relaxation of norepinephrine-precontracted, endothelium-denuded thoracic aorta rings; set-up: species or system rabbits; conditions: for effect on precontracted blood vessel: compared to solvent (EtOH) alone
Experimental: New Zealand white female rabbits weighing 3-4 kilograms were anesthetized with sodium pentobarbital, 13 milligram per kilogram. Descending thoracic aorta were isolated, the vessels were cleaned of adherent tissue and the endothelium was removed by a gentle rubbing with a cotton-tipped applicator inserted into the lumen. The vessels were cut into 5 millimeter rings and mounted on stirrups connected to transducers by which changes in isometric tension were recorded (model TO3C, Grass Instruments, Quincy, Mass.). Vessel rings were suspended in 20 mL of oxygenated Krebs buffer at 37° C. and sustained contractions were induced with 1 μM norepinephrine. The vessels were then relaxed in a dose-dependent fashion (10^−9 through 10^−5 M compound 8). In some experiments vessels were pretreated with methylene blue or hemoglobin to block relaxations.
Relaxations were attenuated by methylene blue (c) and hemoglobin (d) indicating an NO-related effect. (b) is a control with solvent.

[2] = loading dose 20 mg/kg i.p., maintenance dose 1 mg/kg/12 hours; previously shown (Chen et al. 1998); cited from earlier work
C57B1/6 mice = assay: Murine cerebral ischemia model (intraluminal suture, 2 hr MCA occlusion, TTC staining); assay type: in vivo; conditions: loading dose 100 mg/kg i.p., maintenance 40 mg/kg i.p. every 12 hr, first dose 2 hr after MCA occlusion; TTC staining at 48 hr; P<0.03 from control, P<0.05 from memantine; hydrochloride
Experimental: The intraluminal suture technique was used to produce a 2 hr occlusion of the middle cerebral artery (MCA), following the same protocol for focal cerebral ischemia/reperfusion as published previously (Chen, et al., Neuroscience (1998) 86: 1121). However, here C57B1/6 mice were used instead of rats. […] To produce a neuroprotective concentration of compound 7, the loading dose was 100 mg/kg i.p. and the maintenance dose was 40 mg/kg i.p. every 12 hr. In each case, drug or vehicle control was initially administered 2 hr after MCA occlusion. […] The animals were sacrificed and analyzed with TTC staining 48 hr after MCA occlusion (Chen, et al., Neuroscience (1998) 86: 1121).

cerebrocortical neurons = assay: In vitro model of mild NMDA-induced damage leading to apoptosis of cerebrocortical neurons; assay type: cell-based
Experimental: Cerebrocortical cultures were exposed to 300 μM NMDA for 20 min with or without various concentrations of compound 7. The next day cultures were analyzed by neuronal apoptosis as described in Example 19.
Under these conditions (300 μM NMDA exposure for 20 min, followed by washout), neuronal apoptosis was monitored 24 hours later by propidium iodide uptake and morphology of fixed, permeabilized neurons, among other techniques (Bonfoco et al., Proc Natl Acad Sci USA (1995) 92: 7162). NMDA induced about 20% apoptosis of neurons, and that 25-100 μM compound 7 afforded protection from this damage (P<0.001, FIG. 5).

[3] = rabbit aortic rings precontracted with 1 μM norepinephrine, 10^−9 through 10^−5 M tested

Which “concentration at which complete relaxation was achieved” value [1, 3] does the source give for `CC(=O)NC12CC3(C)CC(C)(C1)CC(O[N+](=O)[O-])(C3)C2` [compound 8, 1-acetamido-3,5-dimethyl-7-nitrateadamantane] here?
Its value is 10^−6 M.

And the “concentration at which relaxations were seen” value [1, 3]?
Its value is 10^−8 M.

What about the “relaxations after pretreatment with hemoglobin” value ([1]; vessels pretreated with hemoglobin) of the same compound?
The value was “attenuated”.

And the “relaxations after pretreatment with methylene blue” value ([1]; vessels pretreated with methylene blue)?
The value was “attenuated”.

Which “effect on precontracted blood vessel” value ([1]; FIG. 8, hydrochloride) does the source give for `CC12CC3(C)CC(N)(C1)CC(O)(C2)C3.Cl` [compound 9, 1-amino-3,5-dimethyl-7-hydroxyadamantane hydrochloride] here?
The value was “either no effect or slight contractions of blood vessels; also recorded: either no effect or slight blood vessel contractions”.

Which “effect on precontracted blood vessel” value ([1]; FIG. 8) does the source give for `CC12CC3(C)CC(O)(C1)CC(N(Cc1ccccc1)Cc1ccccc1)(C2)C3` [compound 10, 1,1-dibenzylamino-3,5-dimethyl-7-hydroxy-adamantane] here?
Its value is “either no effect or slight contractions of blood vessels; also recorded: either no effect or slight blood vessel contractions”.

Which “parenchymal levels in the brain” value [2] does the source give for `CC12CC3CC(C)(C1)CC(N)(C3)C2` [memantine] here?
Its value is 1 to 10 µM.

Which “cerebral damage after stroke (neuroprotection)” value (C57B1/6 mice) does the source give for `CC12CC3(C)CC(N)(C1)CC(O[N+](=O)[O-])(C2)C3.Cl` [compound 7, 1-amino-3,5-dimethyl-7-nitrateadamantane hydrochloride] here?
Its value is “more neuroprotective than memantine; also recorded: effective in decreasing cerebral damage after stroke”.

What about the “concentration affording protection from NMDA-induced neuronal apoptosis” value (cerebrocortical neurons; 300 μM NMDA for 20 min, washout, apoptosis monitored 24 hours later by propidium iodide uptake and morphology, NMDA induced about 20% apoptosis, P<0.001) of the same compound?
Its value is 25 to 100 µM.

And the “inhibition of NMDA induced apoptosis in cerebrocortical neurons” value (cerebrocortical neurons; 300 μM NMDA for 20 min with various concentrations of compound, dose-dependent, P<0.001, n=3 cultures)?
Its value is “largely prevented”.

And the “effect on precontracted blood vessel at 10 microM” value ([1]; FIG. 8, 10 microM concentration)?
Its value is “modest relaxation”.
